Species: Rattus norvegicus
Assay: Open TG-GATES - Regimen: Single
Format: toxicity, organism-based, Sprague-Dawley
Design: regimen Single, gender Male, age 6 weeks
Conditions: in vivo, po, 20 mg/kg, route gavage, dose level Low; for APTT / Bas / Eos / Fbg / Hb / Ht / Lym / MCH / MCHC / MCV / Mono / Neu / PT / Plat / RBC / Ret / WBC: tissue Blood; for KIDNEY_L / KIDNEY_R / KIDNEY_TOTAL: tissue Kidney; for LIVER: tissue Liver; for A/G / ALP / ALT / AST / BUN / CRE / Ca / Cl / DBIL / GLC / IP / K / LDH / Na / PL / RALB / TBIL / TC / TG / TP / gamma-GTP: tissue Plasma

## CCc1oc2ccccc2c1C(=O)c1cc(Br)c(O)c(Br)c1 [BENZBROMARONE]
3 h
  TERMINAL_BW: 212.8 g
  APTT: 16.3 s
  Bas: 0%
  Eos: 0.6%
  Fbg: 237.6 mg/dL
  Hb: 13.8 g/dL
  Ht: 41%
  Lym: 81.2%
  MCH: 21.7 pg
  MCHC: 33.6%
  MCV: 64.6 fL
  Mono: 8.4%
  Neu: 9.8%
  PT: 11.8 s
  Plat: 106.4 x10_4/uL
  RBC: 634.6 x10_4/ul
  Ret: 7.7%
  WBC: 91.2 x10_2/uL
  KIDNEY_L: 0.9 g
  KIDNEY_R: 1 g
  KIDNEY_TOTAL: 1.9 g
  LIVER: 10.1 g
  A/G: 2.3
  ALP: 902 IU/L
  ALT: 33.6 IU/L
  AST: 62 IU/L
  BUN: 11.2 mg/dL
  CRE: 0.6 mg/dL
  Ca: 10.7 mg/dL
  Cl: 103.4 meq/L
  DBIL: 0.034 mg/dL
  GLC: 195.4 mg/dL
  IP: 9.5 mg/dL
  K: 4.8 meq/L
  LDH: 81.6 IU/L
  Na: 139 meq/L
  PL: 147 mg/dL
  RALB: 3.9 g/dL
  TBIL: 0.3 mg/dL
  TC: 79.6 mg/dL
  TG: 81.2 mg/dL
  TP: 5.6 g/dL
  gamma-GTP: 1 IU/L
6 h
  TERMINAL_BW: 212.2 g
  APTT: 16.1 s
  Bas: 0%
  Eos: 1.2%
  Fbg: 228 mg/dL
  Hb: 13.8 g/dL
  Ht: 41.2%
  Lym: 79.4%
  MCH: 21.6 pg
  MCHC: 33.5%
  MCV: 64.5 fL
  Mono: 7%
  Neu: 12.6%
  PT: 12.1 s
  Plat: 113.8 x10_4/uL
  RBC: 639.4 x10_4/ul
  Ret: 7.7%
  WBC: 111.3 x10_2/uL
  KIDNEY_L: 1 g
  KIDNEY_R: 1 g
  KIDNEY_TOTAL: 2 g
  LIVER: 9.9 g
  A/G: 2.2
  ALP: 710.4 IU/L
  ALT: 28.8 IU/L
  AST: 59.4 IU/L
  BUN: 11.2 mg/dL
  CRE: 0.4 mg/dL
  Ca: 10.5 mg/dL
  Cl: 103.2 meq/L
  DBIL: 0.002 mg/dL
  GLC: 183 mg/dL
  IP: 9.6 mg/dL
  K: 5.1 meq/L
  LDH: 90 IU/L
  Na: 138.2 meq/L
  PL: 136.4 mg/dL
  RALB: 3.8 g/dL
  TBIL: 0.4 mg/dL
  TC: 75 mg/dL
  TG: 75.4 mg/dL
  TP: 5.6 g/dL
  gamma-GTP: 1 IU/L
9 h
  TERMINAL_BW: 210.1 g
  APTT: 15.6 s
  Bas: 0%
  Eos: 1%
  Fbg: 234.6 mg/dL
  Hb: 13.8 g/dL
  Ht: 40.9%
  Lym: 84.2%
  MCH: 22.1 pg
  MCHC: 33.8%
  MCV: 65.5 fL
  Mono: 6.2%
  Neu: 8.8%
  PT: 12.2 s
  Plat: 113.6 x10_4/uL
  RBC: 625.2 x10_4/ul
  Ret: 7.6%
  WBC: 103.5 x10_2/uL
  KIDNEY_L: 1 g
  KIDNEY_R: 1 g
  KIDNEY_TOTAL: 1.9 g
  LIVER: 9.3 g
  A/G: 2.1
  ALP: 840.2 IU/L
  ALT: 29.6 IU/L
  AST: 60 IU/L
  BUN: 10 mg/dL
  CRE: 0.5 mg/dL
  Ca: 10.1 mg/dL
  Cl: 104.2 meq/L
  DBIL: 0.008 mg/dL
  GLC: 194.4 mg/dL
  IP: 10.5 mg/dL
  K: 4.8 meq/L
  LDH: 86.6 IU/L
  Na: 138.4 meq/L
  PL: 119.4 mg/dL
  RALB: 3.8 g/dL
  TBIL: 0.4 mg/dL
  TC: 67.8 mg/dL
  TG: 44 mg/dL
  TP: 5.7 g/dL
  gamma-GTP: 1 IU/L
24 h
  TERMINAL_BW: 225.2 g
  APTT: 16.5 s
  Bas: 0%
  Eos: 1.6%
  Fbg: 229 mg/dL
  Hb: 13.9 g/dL
  Ht: 41.3%
  Lym: 78.2%
  MCH: 21.8 pg
  MCHC: 33.7%
  MCV: 64.8 fL
  Mono: 7.8%
  Neu: 13%
  PT: 12.1 s
  Plat: 112.8 x10_4/uL
  RBC: 636.8 x10_4/ul
  Ret: 7.2%
  WBC: 103.7 x10_2/uL
  KIDNEY_L: 1 g
  KIDNEY_R: 1 g
  KIDNEY_TOTAL: 2 g
  LIVER: 11.3 g
  A/G: 2
  ALP: 915.4 IU/L
  ALT: 37 IU/L
  AST: 62.6 IU/L
  BUN: 18.6 mg/dL
  CRE: 0.6 mg/dL
  Ca: 10.5 mg/dL
  Cl: 105.2 meq/L
  DBIL: 0.04 mg/dL
  GLC: 184.2 mg/dL
  IP: 7.8 mg/dL
  K: 5.4 meq/L
  LDH: 105.4 IU/L
  Na: 138.4 meq/L
  PL: 161.2 mg/dL
  RALB: 4 g/dL
  TBIL: 0.3 mg/dL
  TC: 83.2 mg/dL
  TG: 131 mg/dL
  TP: 6 g/dL
  gamma-GTP: 1.4 IU/L
